Marks after values point to notes of the source that are not given here.
Experiments:
Type in all cases: in vivo, rat
[1] = test system: animals with hypobaric hypoxia-induced amnesia; assay: Step-through passive avoidance, hypobaric hypoxia-induced amnesia; details: for Latency: hypobaric hypoxia, median latency to re-enter dark box, max 300 s
Experimental: (§1) Male rats of the Sprague-Dawley strain (purchased from Charles River, Italy) weighing 280±20 g were used throughout all experiments. The animals were housed two-three to a cage under a constant light-dark cycle (lights on between 8.00 and 20.00) at 21° C. Commercial food and tap water were available ad libitum. All animals were used only once in the behavioral experiments.
(§2) Ropinirole (ropinirole hydrochloride, SmithKline Beecham, Italy) and dihydroergocryptine (DHECP) α-dihydroergocryptine methanesulfonate, Monsanto, Italy) were dissolved in saline and injected subcutaneously (s.c.) at the dose of 0.5 and 1 mg/kg/day for 7 days. In the experiments with kainate-induced convulsions, ropinirole or DHECP were injected intravenously (i.v.) 30 min prior, and again at the same time of the intracerebroventricular (i.c.v) injection on kainic acid; Control animals received an injection of saline alone with the same procedure.
Passive avoidance behaviour was studied in a step-through type of passive avoidance situation (Ader et al., Psycon Sci, 26, 125-128 (1972)). Briefly the rats were adapted to the apparatus consisting of a large dark compartment equipped with a grid floor and a mesh-covered elevated runway attached to the front centre of the dark chamber. Adaptation training was followed by a single trial in which the rats were placed on the elevated platform and allowed to enter the dark box. Three such trials were given on the next day with an intertrial interval of 5 min after the trial. The rats received a single 2-s unavoidable scrambled foot-shock (0.20 mA) immediately after entering the dark compartment. Retention of the response was tested 24 h after the learning trial. The rats were placed on the elevated runway and the latency to re-enter the shock compartment was recorded up to a maximum of 300 s.
(§3) In the first experiment, the effects of ropinirole or DHECP were studied on amnesia induced by hypobaric hypoxia in rats. After a 7-day pretreatment with ropinirole, DHECP or saline, a group of animals was subjected to acute hypobaric hypoxia by means of a hypobaric chamber (Chantiers et Ateliers de Bretagne, France) causing depression to 300 mmHg (Boismare et al., Gerentology, 24, 6-13 (1978)). After 3 min in the chamber, the animals were removed and admitted for behavioral testing. Intact control rats were also introduced into the chamber but not subjected to hypobaric hypoxia.

[2] = test system: animals with hypobaric hypoxia-induced amnesia; assay: Shuttle-box active avoidance acquisition, hypobaric hypoxia-induced amnesia; details: for Learners / CARs: hypobaric hypoxia; for CARs: mean ± S.E.M.
Experimental: as §1, §2
(§4) Shuttle-box active avoidance acquisition was studied in a single session test as described in Bohus and De Wied, Endogenous Peptides and Learning and Memory Processes. Academic Press, New York, pp59-775, (1981). Briefly, the rats were trained to avoid the unconditioned stimulus (US) of a scrambled electrical foot-shock (0.20 mA) delivered through the grid floor. The conditioned stimulus (CS) was a buzzer presented for 3 s prior to the US. If no escape occurred within 20 s of CS/US presentation, the shock was terminated. A maximum of 30 conditioning trials were given with a variable intertrial interval averaging 60 s. The learning criterion was five consecutive conditioned avoidance responses (CARs). For those animals that reached the criterion in less than 30 trials, the remaining trials until 30 were considered as CARs. Indexes of avoidance behaviour were the total number of CARs and the percent number of learners per group.
as §3

[3] = test system: animals with hypobaric hypoxia-induced amnesia; assay: Open field spontaneous motor activity, hypobaric hypoxia; details: for Ambulation / Defecation / Grooming / Rearing: 5 min open field, mean ± S.E.M.
Experimental: as §1, §2
(§5) Spontaneous motor activity was scored in a circular open field arena as described by Weijnen and Slangen, Pituitary, Adrenal and the Brain, pp221-235 (1982). Animals were put inside a circular lit-up arena, with the bottom divided into 27 areas of equal size.
as §3

[4] = test system: animals with chronic brain occlusive ischemia; assay: Shuttle-box active avoidance acquisition, chronic brain occlusive ischemia; details: for CARs: chronic brain occlusive ischemia (2 months), mean ± S.E.M.
Experimental: as §1
(§6) A number of animals were subjected to a manipulation of the four major arteries of the brain with a method similar to that described by Pulsinelli et al., Ann. Neurol, 11, 491-498 (1982). Both vertebral arteries were cauterised under sodium pentobarbital anaesthesia and polyethylene cuffs PE-10 were placed loosely around the common carotid arteries without completely interrupting carotid blood flow. Two months after operation, all surviving animals showing no neurological gross abnormalities were admitted to drug treatment. Animals undergoing a sham operation were considered as controls.
as §2
as §4, with “Academic” for “Shuttle-box active avoidance acquisition was studied in a single session test as described in Bohus and De Wied, Endogenous Peptides and Learning and Memory Processes. Academic”
(§7) Animals with 2-month chronic brain occlusive ischemia, were subjected to a treatment with ropinirole, DHECP or saline for 7 days. At the end of treatment, the animals were admitted to behavioral testing. Controls were those animals with sham manipulation of brain arteries.

[5] = test system: animals with chronic brain occlusive ischemia; assay: Open field spontaneous motor activity, chronic brain occlusive ischemia; details: for Ambulation / Defecation / Grooming / Rearing: 5 min open field, mean ± S.E.M.
Experimental: as §1, §6, §2, §5, §7

[6] = hypobaric hypoxia-induced amnesia, summary of Table 1

Structure (SMILES): CC(C)C[C@H]1C(=O)N2CCC[C@H]2[C@]2(O)O[C@](NC(=O)[C@@H]3C[C@@H]4c5cccc6[nH]cc(c56)C[C@H]4N(C)C3)(C(C)C)C(=O)N12 [DHECP, α-dihydroergocryptine methanesulfonate]
- latency to re-enter the dark box (effect of treatment, in words) [1, 6]: increase in these behavioral parameters, however, for the latter only with the greater dose
- Latency ([1]; 0.5 mg/kg/day s.c. for 7 days): 30^e
- Latency ([1]; 1 mg/kg/day s.c. for 7 days): 74^f
- number of CARs and percent number of learners in the shuttle-box (effect of treatment, in words) [2, 6]: increase in these behavioral parameters, however, for the latter only with the greater dose
- Learners ([2]; 0.5 mg/kg/day s.c. for 7 days): 30^c percent
- CARs ([2]; 0.5 mg/kg/day s.c. for 7 days): 13.0 ± 1.3^a
- Learners ([2]; 1 mg/kg/day s.c. for 7 days): 80^d percent
- CARs ([2]; 1 mg/kg/day s.c. for 7 days): 18.1 ± 1.2^b
- Ambulation ([3]; 0.5 mg/kg/day s.c. for 7 days): 68.9 ± 6.6^b
- Defecation ([3]; 0.5 mg/kg/day s.c. for 7 days): 3.4 ± 0.9
- Grooming ([3]; 0.5 mg/kg/day s.c. for 7 days): 22.2 ± 2.3
- Rearing ([3]; 0.5 mg/kg/day s.c. for 7 days): 16.4 ± 1.3^a,b
- Ambulation ([3]; 1 mg/kg/day s.c. for 7 days): 73.1 ± 5.6^a,b
- Defecation ([3]; 1 mg/kg/day s.c. for 7 days): 3.7 ± 1.3
- Grooming ([3]; 1 mg/kg/day s.c. for 7 days): 23.3 ± 2.1
- Rearing ([3]; 1 mg/kg/day s.c. for 7 days): 16.5 ± 1.9^b
- ambulation and rearing (effect of treatment, in words) ([3]; vs intact controls and saline-treated hypoxic animals): higher
- CARs ([4]; 0.5 mg/kg/day s.c. for 7 days): 10.6 ± 1.1^a
- CARs ([4]; 1 mg/kg/day s.c. for 7 days): 14.1 ± 1.1^a
- Learners ([4]; chronic brain occlusive ischemia, 0.5 mg/kg/day s.c. for 7 days): 20^b percent
- Learners ([4]; chronic brain occlusive ischemia, 1 mg/kg/day s.c. for 7 days): 10^b percent
- cognitive parameters of the active avoidance test (effect of treatment, in words) ([4]; chronic brain occlusive ischemia, Table 2): No statistically significant change
- Ambulation ([5]; 0.5 mg/kg/day s.c. for 7 days): 68.9 ± 6.6^a,e
- Defecation ([5]; 0.5 mg/kg/day s.c. for 7 days): 3.4 ± 0.9^a
- Grooming ([5]; 0.5 mg/kg/day s.c. for 7 days): 22.2 ± 2.3
- Rearing ([5]; 0.5 mg/kg/day s.c. for 7 days): 16.4 ± 1.3^e
- Ambulation ([5]; 1 mg/kg/day s.c. for 7 days): 73.1 ± 5.6^a,e
- Defecation ([5]; 1 mg/kg/day s.c. for 7 days): 3.7 ± 1.3^a
- Grooming ([5]; 1 mg/kg/day s.c. for 7 days): 23.3 ± 2.1
- Rearing ([5]; 1 mg/kg/day s.c. for 7 days): 16.5 ± 1.9^e
- ambulation and rearing (effect of treatment, in words) ([5]; to a level similar to that of intact controls): increased

Reference: US20040242669A1, “Method of treating deficits associated with brain injury” (priority 2003, published 2004)
